# Results published in patent US6518306B1, “1,4-substitued 4,4-diaryl cyclohexanes” (SmithKline Beecham Corporation, priority 1999, dated 2003).
# Tested on: TNF
# Assay: Endotoxic shock models, in vivo TNF activity
# Conditions: endotoxic shock model; serum TNF after endotoxin injection
# Excerpt: Two models of endotoxic shock have been utilized to determine in vivo TNF activity for the compounds of Formula (I) and (II). The protocol used in these models is described in Badger et al., EPO published Application 0 411 754 A2, Feb. 6, 1991, and in Hanna. WO 90/15534, Dec. 27, 1990.
compound,measurement,value
"COc1ccc(C=O)cc1OC1CCCC1 [Example 1, 3-Cyclopentyloxy-4-methoxybenzaldehyde]",in vivo response in reducing serum levels of TNF induced by the injection of endotoxin,positive in vivo response
